# Experimental data taken from patent US11655269B2, “Prodrug-type anticancer agent using cancer-specific enzymatic activity” (The University of Tokyo, priority 2018, dated 2023).
# What was measured:
# [1] = test system: SHIN3 cells (high GGT expression) and H226 cells (low GGT expression); assay: CCK-8 assay, cells with high and low GGT expression; format: cell-based, human
# Method: (§1) Next, it was verified whether compounds 1-3 can change the cell viability by functioning as a prodrug when administered to cells with high and low enzyme expression. The efficacy studies were carried out by using a general colorimetric method called CCK-8 assay (method for quantifying the dehydrogenase activity inside living cells through reduction of colorless WST-8 to orange formazan) to quantify the number of living cells. The CCK-8 assay evaluation method is described below.
# (§2) The B-galactosidase-activated prodrug was evaluated using HEK/lac Z cells (cells derived from human kidney cells, high β-Gal expression) and HEK293 cells (cells derived from human kidney cells, low β-Gal expression). The DPP-IV-activated prodrug was evaluated using H226 cells (human lung squamous cell carcinoma cells, high DPP-IV expression) and H460 cells (human non-small cell epithelial lung cancer cells, low DPP-IV expression). The GGT-activated prodrug was evaluated using SHIN3 cells (human ovarian cancer cells, high GGT expression) and H226 cells (human lung squamous cell carcinoma cells, low GGT expression).
# Each type of cell was seeded in 96-well plates (cell density: 1.0×10^4/well) and incubated overnight. The medium was exchanged for fresh medium, and the synthesized derivatives were added (final concentration 1-50 μM, 0.5% DMSO, n=3). After culturing the cells for another 24 hours, a Cell Counting Kit-8 (10 μL/well, manufactured by […]) was added. After 2.5 hours, the 450 nm absorbance was measured by a plate reader, and the number of viable cells was quantified.
# Next, benzyl-position leaving group-converted derivatives were subjected to the CCK-8 assay described above.
# GGT = assay: Enzymatic reaction with purified GGT, LC-MS analysis of products; format: biochemical
# Method: (§3) Next, enzymatic reactions were carried out under the following conditions using the three compounds synthesized and purified enzymes.
# (§4) Final compound concentration: 100 μM
# (§5) Final enzyme concentration: 4 nM (β-Gal), 8.5 μg/mL (DPP-IV), 10 U/mL (GGT)
# (§6) Reaction temperature: 37° C.
# (§7) (2) Enzymatic Reaction Using DPP-IV and GGT
# (§8) Instrument: 1260 Infinity (manufactured by Agilent Technologies, Inc.)
# (§9) Column: Poroshell 120, 4.6×100 mm (manufactured by Agilent Technologies, Inc.)
# (§10) Mobile phase A: water (0.01M ammonium formate)
# (§11) Mobile phase B: 80% acetonitrile/water (0.01M ammonium formate)
# Next, enzymatic reactions were carried out under the following conditions using the benzyl-position leaving group-converted derivatives synthesized and purified enzyme.
# Final enzyme concentration: 10 U/mL (GGT)
# Enzymatic reaction using GGT
# HEK/lac Z cells = assay: CCK-8 assay, cells with high β-Gal expression; format: cell-based, human; conditions: FIG. 5
# Method: as §1, §2
# (§12) Each type of cell was seeded in 96-well plates (cell density: 1.0×10^4/well) and incubated overnight. […] After 2.5 hours, the 450 nm absorbance was measured by a plate reader, and the number of viable cells was quantified.
# HEK293 cells = assay: CCK-8 assay, cells with low β-Gal expression; format: cell-based, human; conditions: 50 μM, after 24 hours, FIG. 5
# Method: as §1, §2, §12
# β-Gal = β-Gal (Escherichia coli, UniProt P00722); assay: Enzymatic reaction with purified β-galactosidase, LC-MS analysis of products; format: biochemical; conditions: 100 μM compound, 4 nM β-Gal, 37° C.; reaction product 2-hydroxybenzyl alcohol; FIG. 4
# Method: as §3, §4, §5, §6
# (1) Enzymatic Reaction Using β-Galactosidase
# Instrument: ACQUITY UPLC (manufactured by Waters Corporation)
# as §9, §10, §11
# [2] = test system: H226 cells (high DPP-IV expression) and H460 cells (low DPP-IV expression); assay: CCK-8 assay, cells with high and low DPP-IV expression; format: cell-based, human; conditions: H226 (high DPP-IV) vs H460 (low DPP-IV), 1-50 μM, 24 hours; FIG. 6
# Method: as §1, §2, §12
# DPP-IV = DPP-IV (Homo sapiens, UniProt P27487); assay: Enzymatic reaction with purified DPP-IV, LC-MS analysis of products; format: biochemical; conditions: 100 μM compound, 8.5 μg/mL DPP-IV, 37° C.; reaction product 2-aminobenzyl alcohol; FIG. 4
# Method: as §3, §4, §5, §6, §7, §8, §9, §10, §11
# [3] = test system: SHIN3 cells and H226 cells; assay: Cell death observation by fluorescence imaging over time with EthD-1 (protocol 1); format: cell-based, human; conditions: SHIN3 vs H226 cultured separately, imaging over 24 hr; FIG. 8
# From the text: Since changing the types of cells and standardizing the medium to RPMI-1640 made coculture possible, the aim then became to observe cell death under coculture conditions and to construct a quantitative method. It was decided to conduct these studies using compound 3 for GGT (gGlu-FMA) based on the results obtained thus far, and the possibility of visually observing cell death by observation of fluorescence using one type of cell was first explored as an initial study (FIG. 8).
# Scan mode: xyzt, x=512, y=512, z=4, t=24. Scale bar: 50 μm.
# [4] = test system: SHIN3 cells and H226 cells; assay: Efficacy evaluation by flow cytometry (protocol 3); format: cell-based, human; conditions: 25 μM, 24-hr incubation; compared with +100 μM GGsTop and 0.25% DMSO control; FIG. 10
# Method: On the other hand, since it is impossible to quantitatively discuss the extent to which the survival rates of high-expression/low-expression cells have changed, the present inventors studied whether this could be evaluated using flow cytometry (FIG. 10).
# (Top) 25 μM model compound, (middle) 25 μM model compound+100 μM GGsTop, (bottom) 0.25% DMSO control. Analysis was carried out after 24-hr incubation.
# [5] = test system: cocultured SHIN3 cells and H226 cells; assay: Cell death observation under coculture conditions, time-lapse fluorescence imaging with EthD-1 (protocol 2); format: cell-based, human; conditions: coculture of high and low GGT expression cells, 24 hr time-lapse imaging; FIG. 9
# SHIN3 cells = assay: Administration study in peritoneal dissemination model mice; format: in vivo; conditions: 5 mg/kg intraperitoneally each day from day 7, imaged day 21 with gGlu-HMRG, vs PBS; FIG. 17
# Method: Peritoneal dissemination model mice were created by intraperitoneal administration of SHIN3 cells (cancer cell line derived from ovarian cancer, high GGT activity) suspended in PBS. From day seven after cell dissemination, 5 mg/kg of gGlu-FMA or PBS (control) was administered intraperitoneally each day. On day 21 after cell dissemination, gGlu-HMRG was administered intraperitoneally, and the mice were sacrificed ten minutes later. After laparotomy, fluorescence images were acquired by a Maestro in vivo imaging device (FIG. 16).
# Sequence of β-Gal (P00722 2-1024): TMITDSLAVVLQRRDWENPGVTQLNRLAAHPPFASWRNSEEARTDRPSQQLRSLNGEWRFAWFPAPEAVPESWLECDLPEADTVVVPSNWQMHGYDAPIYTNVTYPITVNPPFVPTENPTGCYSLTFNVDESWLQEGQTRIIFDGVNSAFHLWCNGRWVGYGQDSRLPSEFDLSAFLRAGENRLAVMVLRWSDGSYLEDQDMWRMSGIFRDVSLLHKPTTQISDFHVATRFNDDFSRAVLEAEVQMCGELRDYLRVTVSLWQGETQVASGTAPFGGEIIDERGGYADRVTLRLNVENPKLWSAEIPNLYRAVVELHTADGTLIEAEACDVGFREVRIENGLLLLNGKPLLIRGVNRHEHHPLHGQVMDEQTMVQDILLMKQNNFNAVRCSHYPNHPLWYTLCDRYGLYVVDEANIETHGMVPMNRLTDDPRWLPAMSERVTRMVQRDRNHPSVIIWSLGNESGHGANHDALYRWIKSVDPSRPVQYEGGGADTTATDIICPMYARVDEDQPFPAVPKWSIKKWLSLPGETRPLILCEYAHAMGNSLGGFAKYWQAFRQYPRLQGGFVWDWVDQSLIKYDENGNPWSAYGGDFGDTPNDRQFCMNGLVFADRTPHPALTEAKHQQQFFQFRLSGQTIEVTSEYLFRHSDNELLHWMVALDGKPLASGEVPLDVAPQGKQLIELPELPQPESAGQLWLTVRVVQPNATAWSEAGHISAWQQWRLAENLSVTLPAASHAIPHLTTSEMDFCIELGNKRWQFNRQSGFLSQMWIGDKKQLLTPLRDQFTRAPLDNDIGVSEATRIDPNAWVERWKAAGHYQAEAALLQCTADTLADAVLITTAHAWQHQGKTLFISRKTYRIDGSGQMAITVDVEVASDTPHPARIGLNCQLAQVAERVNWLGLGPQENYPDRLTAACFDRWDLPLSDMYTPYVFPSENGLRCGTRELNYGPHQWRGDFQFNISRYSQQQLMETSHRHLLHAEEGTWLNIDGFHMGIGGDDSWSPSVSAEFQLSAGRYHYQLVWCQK
# Sequence of DPP-IV (P27487 whole entry, species assumed): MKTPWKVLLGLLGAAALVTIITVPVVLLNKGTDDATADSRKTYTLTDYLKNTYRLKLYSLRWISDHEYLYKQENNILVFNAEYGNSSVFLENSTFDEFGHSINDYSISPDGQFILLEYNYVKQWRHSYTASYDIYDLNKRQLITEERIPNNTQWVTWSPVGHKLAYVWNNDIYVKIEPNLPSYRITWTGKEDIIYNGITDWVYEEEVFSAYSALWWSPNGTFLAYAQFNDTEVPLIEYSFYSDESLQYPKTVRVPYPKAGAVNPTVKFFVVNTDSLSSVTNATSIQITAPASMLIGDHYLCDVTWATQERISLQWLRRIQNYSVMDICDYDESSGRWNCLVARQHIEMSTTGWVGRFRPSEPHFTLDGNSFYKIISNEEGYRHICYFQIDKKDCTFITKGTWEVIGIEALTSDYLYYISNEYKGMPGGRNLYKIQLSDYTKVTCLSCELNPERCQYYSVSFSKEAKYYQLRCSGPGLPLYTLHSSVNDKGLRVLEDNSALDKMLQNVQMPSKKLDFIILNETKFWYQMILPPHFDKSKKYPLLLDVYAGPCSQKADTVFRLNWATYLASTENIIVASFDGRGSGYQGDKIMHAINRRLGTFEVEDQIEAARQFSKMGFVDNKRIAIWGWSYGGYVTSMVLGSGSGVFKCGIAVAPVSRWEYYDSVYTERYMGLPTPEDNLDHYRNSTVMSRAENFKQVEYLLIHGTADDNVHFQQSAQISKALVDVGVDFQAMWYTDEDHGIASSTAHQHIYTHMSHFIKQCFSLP
compound,measurement,setting,value
"COP(=O)(CCC(N)C(=O)O)Oc1cccc(CC(=O)O)c1 (stereo not shown) [GGsTop, reference compound]",effect of GGT inhibitor on survival rate of cells treated with the GGT prodrug,"[1]; CCK-8, FIG. 7",completely restored the survival rate
same,effect of inhibitor on the GGT enzymatic reaction of the model compound,GGT; inhibitor added at 100 μM,inhibited
OCC1O[C@@H](Oc2ccccc2CF)C(O)C(O)[C@H]1O (stereo partly shown) [compound 1],survival rate,"HEK/lac Z cells; HEK/lac Z cells, 50 μM, after 24 hours",did not drop at all
same,difference in survival rate between high-expression and low-expression cells,"HEK/lac Z cells; HEK/lac Z vs HEK293, up to 50 μM, 24 hours",no significant difference
same,survival rate,HEK293 cells,did not drop at all
same,cleavage by β-Gal,β-Gal,cleaved
NCC(=O)N1CCC[C@H]1C(=O)Nc1ccccc1CF [compound 2],changes in cell viability between cells with high and low enzyme expression,[2],changes in the cell viability were observed
same,cleavage by DPP-IV,DPP-IV,cleaved
N[C@@H](CCC(=O)Nc1ccccc1CF)C(=O)O [compound 3],changes in cell viability between cells with high and low enzyme expression,"[1]; SHIN3 (high GGT) vs H226 (low GGT), 1-50 μM, 24 hours, FIG. 7",changes in the cell viability were observed
same,cell type selectivity,"[1]; SHIN3 vs H226, CCK-8, FIG. 7",high cell type selectivity
same,antitumor activity (CCK-8 assay),"[1]; concentration of 25 μM, FIG. 13",showed an effect
same,cleavage by GGT,"GGT; 100 μM compound, 10 U/mL GGT, 37° C., reaction product 2-aminobenzyl alcohol, FIG. 4",cleaved
same,cell death (EthD-1 dead cell staining),[3],more cell death occurred in SHIN3 cells
same,cell death by flow cytometry (EthD-1 dead staining),[4],selective cell death of SHIN3 cells
same,selective cell damage in coculture (EthD-1 dead cell staining),[5],selectively damages high-expression cells
same,tumors on the mesentery (macro and fluorescence images),SHIN3 cells,Tumors appear to be decreased overall
